In publication PMC6199744, “Development of Chemical Proteomics for the Folateome and Analysis of the Kinetoplastid Folateome” (ACS Infectious Diseases, 2018):

Assays:
TbTS = details: direct enzyme assays; read-out: TbTS Ki; cited from earlier work
[1] = system: MTHF complex (DHCH protein in humans); assay: Multitargeted bead mixture competition, HeLa cell extract; assay type: binding, human; details: bead mixture; HeLa cell extract
[2] = system: BRANCHED-CHAIN AMINO ACID AMINOTRANSFERASE, PUTATI (TB427.02.4590); assay: Multitargeted bead mixture competition; assay type: binding; details: free ligand 100 μM, T. brucei lysate
[3] = system: HYPOTHETICAL PROTEIN, CONSERVED (Tb427.10.6100); assay: Multitargeted bead mixture competition; assay type: binding; details: free ligand 100 μM, T. brucei lysate
TB927.7.1340 = assay: Multitargeted bead mixture competition; assay type: binding; details: free ligand 100 μM, T. brucei lysate
[4] = system: PROTEIN KINASE, PUTATIVE (Tb427.03.1570); assay: Multitargeted bead mixture competition; assay type: binding; details: free ligand 100 μM, T. brucei lysate
[5] = system: PEPTIDYL-PROLYL CIS-TRANS ISOMERASE (CYCLOPHILIN- (TB427TMP.211.1350)); assay: Multitargeted bead mixture competition; assay type: binding; details: free ligand 100 μM, T. brucei lysate
PTR-1 = PTR-1 (Trypanosoma brucei brucei, UniProt O76290); assay: Individual bead pull down with competing free ligand; details: competing free ligand 100 μM; bead = immobilized compound of the row; T. brucei lysate; read-out: % Inhibition of protein binding to bead, PTR-1, T. brucei
Chain of PTR-1 (O76290 entry or part of it): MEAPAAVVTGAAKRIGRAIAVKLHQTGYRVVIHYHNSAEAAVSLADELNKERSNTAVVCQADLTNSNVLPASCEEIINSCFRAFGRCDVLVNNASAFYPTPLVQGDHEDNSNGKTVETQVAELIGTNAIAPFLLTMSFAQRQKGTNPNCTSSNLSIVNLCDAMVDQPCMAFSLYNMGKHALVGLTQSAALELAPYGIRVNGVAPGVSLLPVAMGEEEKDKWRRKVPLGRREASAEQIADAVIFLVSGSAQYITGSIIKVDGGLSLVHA
From the text: (§1) Antifolate compounds were immobilized onto NHS-activated sepharose beads/reverse sepharose beads through amide coupling via either an amino or carboxyl group (see Figure 3). The reaction was monitored by observing the disappearance of test compound by LCMS, after which the unreacted coupling sites were capped with NHS-acetate or aminoethanol.
(§2) Folate metabolizing enzymes are not highly abundant proteins,[19],[20] potentially making their identification by MS difficult. Beads will not only pull down the low abundant high affinity binders but also attract highly abundant, low affinity binders or so-called nonspecific binders. Sometimes, the nonspecific high abundant proteins can mask true binders. The target identification approach used in this study overcomes this issue by performing competition studies. Various concentrations of the free unmodified inhibitor (test compound) were preincubated with the lysate, prior to addition of the beads derivatized with immobilized compounds. Following washing of the bound proteins from the beads and tryptic digest, the peptides were labeled using the TMTs and then pooled. Differences in peptide abundance were analyzed by fragmentation of the isotope-coded isobaric tags in the MS/MS spectra (Figure 5).[9],[11],[12],[21] While the competition experiments with test compound confirm specific binding, it is also possible that some proteins will have a stronger binding interaction with the derivatized beads than the competing test compound, due to subtle differences in the interactions between the immobilized compound and the test compound with the target protein.

DHFR-TS = DHFR-TS (Trypanosoma brucei brucei, UniProt Q27783); assay: as above; details: competing free ligand 100 μM; bead = immobilized compound of the row; T. brucei lysate; read-out: % Inhibition of protein binding to bead, DHFR-TS, T. brucei
Chain of DHFR-TS (Q27783 whole entry): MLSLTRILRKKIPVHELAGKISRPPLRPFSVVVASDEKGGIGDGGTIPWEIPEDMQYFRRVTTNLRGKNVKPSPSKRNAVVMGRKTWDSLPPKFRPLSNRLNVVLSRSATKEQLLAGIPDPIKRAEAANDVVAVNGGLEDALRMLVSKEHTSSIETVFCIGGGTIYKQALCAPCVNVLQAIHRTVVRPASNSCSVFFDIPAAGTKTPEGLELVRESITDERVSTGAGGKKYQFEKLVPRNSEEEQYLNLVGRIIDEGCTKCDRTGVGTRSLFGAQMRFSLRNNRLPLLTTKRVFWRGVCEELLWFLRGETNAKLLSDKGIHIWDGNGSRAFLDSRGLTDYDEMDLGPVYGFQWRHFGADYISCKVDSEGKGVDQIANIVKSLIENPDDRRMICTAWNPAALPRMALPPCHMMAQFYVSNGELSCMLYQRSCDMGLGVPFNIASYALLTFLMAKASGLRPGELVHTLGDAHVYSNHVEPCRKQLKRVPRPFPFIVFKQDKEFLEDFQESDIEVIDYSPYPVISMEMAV
From the text: as §1, §2

TB09.211.1690 = assay: Multitargeted bead mixture competition; assay type: binding; details: free ligand 100 μM, T. brucei lysate
[6] = system: ACETYLTRANSFERASE, PUTATIVE (Tb427.08.3310); assay: Multitargeted bead mixture competition; assay type: binding; details: free ligand 100 μM, T. brucei lysate

Nc1nc2[nH]cc(CCc3ccc(C(=O)N[C@@H](CCC(=O)O)C(=O)O)cc3)c2c(=O)[nH]1 [PTX, pemetrexed]
Ki (TbTS): 20.5 µM

CCCCCCOc1ccc(Cc2cnc(N)nc2N)cc1 [compound 1]
inhibition, all subunits of the MTHF complex [1]: > 70%

Nc1nc2cccc(-c3ccccc3)c2n1Cc1ccc(Cl)c(Cl)c1 [compound 3]
percentage of competition from bead binding [2]: 51% | percentage of competition from bead binding [3]: 67% | percentage of competition from bead binding (TB927.7.1340): 40% | percentage of competition from bead binding [4]: -2% | percentage of competition from bead binding [5]: 38% | inhibition at 100 µM (PTR-1): < 50% | inhibition at 100 µM (DHFR-TS): < 50% | percentage of competition from bead binding (TB09.211.1690): 39% | percentage of competition from bead binding [6]: 37%
